Read-outs that look alike come from different tables or passages of the source.
System: Organic anion transporters (OATs)
Assay: In vivo microdialysis pharmacokinetics of LVFX with OATs inhibitor probenecid
Design: species or system rat
Details: for MRT / half-life / Tmax / AUC(0-inf) / Cmax / AUC(0-t) / Kp: rat, intravenous, with Probenecid 50 mg/kg i.p., PRO group, Probenecid 50 mg/kg i.p. + LVFX 50 mg/kg, N=5; for MRT / half-life / AUC(0-inf) / Cmax / AUC(0-t): mean ± SD; for AUC(0-t): read-out: AUC0–180 (converted)
Experimental: On the day of surgery, rats were anesthetized using inhaled isoflurane via a facemask. The rats were placed in a stereotaxic frame (Gene&I), and the body temperature was maintained with a homoeothermic blanket set at 37°C. A midline incision was made to expose the skull. According to the Paxinos and Watson atlas, two microdialysis intracerebral guide cannulae (Eicom Co.) were implanted into the hippocampus CA1 region (Hp‐CA1 coordinates: AP −4.16 mm; ML −2.2 mm; DV −2.9 mm) and lateral ventricle (LV coordinates: AP −1.4 mm; ML +2.2 mm; DV −3.4 mm). Fixed to the skull using a screw and dental cement. After 3 days of recovery, the rats were anesthetized with isoflurane again. An intravascular probe (TP‐100‐20; 20 mm, Eicom Co.) was implanted into the jugular vein toward the right atrium. After the blood microdialysis probe was positioned within the jugular vein, the pipeline was connected to perfuse with ACD solution (citric acid 3.5 mM; sodium citrate 7.5 mM; dextrose 13.6 mM) at a flow rate of […], and the Hamilton microinjection pump was used for continuous perfusion. After stopping isoflurane inhalation, the rats were allowed to wake up naturally on the homoeothermic blanket. The awake rats were placed in a device that allowed them to move freely. Animals were allowed to recover for an additional 24 h.
All microdialysate concentrations (C m) from the hippocampal ECF and lateral ventricle CSF were converted to the unbound drug concentration (C u) at the target site using the following formula: C u = C m/R dial.
A total of 32 rats were randomly divided into the following groups: • Control group, N = 12: vehicle solution + LVFX (50 mg/kg). • TAR group, N = 5: Tariquidar (8 mg/kg) + LVFX (50 mg/kg). • Ko143 group, N = 5: Ko143 (15 mg/kg) + LVFX (50 mg/kg). • MK571 group, N = 5: MK571 (20 mg/kg) + LVFX (50 mg/kg). • PRO group, N = 5: Probenecid (50 mg/kg) + LVFX (50 mg/kg).
Levofloxacin was freshly dissolved in isotonic saline and administered via tail vein injection. Thirty minutes before LVFX administration, the intervention drugs of each group were injected intraperitoneally. To reduce the possible effect of solvents on BBB or BCSFB permeability of LVFX, we prioritized water as the solvent. However, Tariquidar and Ko143 are insoluble in water, and a cosolvent must be used to prepare agents that animals can tolerate. According to the different physicochemical properties of these four inhibitors, the preparation of each transporter inhibitor solution in this experiment was as follows. • P‐glycoprotein (P‐gp) inhibitor Tariquidar[22]: Tariquidar was freshly dissolved in DMSO to 8 mg/ml and then diluted to 4 mg/ml with a solution containing 10% Tween‐80, 25% PEG300, and 65% sterile water. • Breast cancer resistance protein (BCRP) inhibitor Ko143[23]: Ko143 was freshly dissolved in DMSO to 15 mg/ml and then diluted to 7.5 mg/ml with a solution containing 10% Tween‐80, 25% PEG300, and 65% sterile water. • Multidrug resistance‐associated proteins (MRPs) inhibitor MK571[24]: MK571 sodium salt hydrate was dissolved in 1.25% (w/v) aq sodium hydrogen carbonate (NaHCO3) solution to obtain a concentration of 10 mg/ml. • Organic anion transporters (OATs) inhibitor probenecid[25]: Probenecid was dissolved in NaOH (pH = 9.0–9.2) alkalized physiological saline to obtain a concentration of 25 mg/ml.
The pipelines where the blood and brain probes were installed were perfused at the speed of 2 μl/min with ACD solution and ACSF, respectively. Two brain probes were inserted into guide cannulas of the target site and allowed to equilibrate for 1 h. Subsequently, the rats were treated according to their corresponding groups in the device where they could move freely. Microdialyses samples were collected every 15 min using a fraction collector (EFC‐96, Eicom Co.) for 3 h and stored at 4°C until analysis. Finally, rats were anesthetized and decapitated, and their brain was harvested.

[1] = blood, PRO group (probenecid 50 mg/kg) vs control group
[2] = CSF (lateral ventricle microdialysate, unbound), 30 min before LVFX, CSF
[3] = CSF (lateral ventricle microdialysate, unbound), CSF
[4] = brain ECF (hippocampal microdialysate, unbound), 30 min before LVFX, brain ECF

In the case of `C[C@H]1COc2c(N3CCN(C)CC3)c(F)cc3c(=O)c(C(=O)O)cn1c23` [LVFX, Levofloxacin], the “AUC0–180 higher than control group” value [1] is reported as 128.6%, the “AUC0–∞ higher than control group” value [1] is reported as 143.0% and the “C max greater than control group” value [1] is reported as 71.2%. For the same molecule, the “MRT longer than control group” value [1] was 1.29 times, the “t 1/2 longer than control group” value [1] was 1.28 times and the MRT [2] was 1.47 h. For the same molecule, the half-life [2] was 0.959 ± 0.126 h, the Tmax [3] was 0.25 h and the AUC(0-inf) [3] was 9510 ng·h/mL. For the same molecule, the Cmax [3] was 6800 ± 240 ng/mL, the AUC(0-t) [3] was 8330 ng·h/mL and the Kp (CSF / blood (unbound, microdialysate), 30 min before LVFX, AUCu,CSF/AUCu,blood, read-out: K p,uu,CSF) was 0.359 ± 0.008. The Tmax [4] was 0.25 h, the AUC(0-inf) [4] was 9220 ng·h/mL and the Cmax [4] was 5850 ± 180 ng/mL. The half-life [4] was 1.12 ± 0.28 h, the AUC(0-t) [4] was 7830 ng·h/mL and the Kp (brain ECF / blood, 30 min before LVFX, AUCu,ECF/AUCu,blood, read-out: K p,uu,ECF) was 0.337 ± 0.012. It also gave a Tmax (30 min before LVFX, blood) of 0.25 h, an AUC(0-inf) (30 min before LVFX, blood) of 27000 ng·h/mL and a Cmax (30 min before LVFX, blood) of 17500 ± 600 ng/mL. The MRT (30 min before LVFX, blood) was 1.58 h, the half-life (30 min before LVFX, blood) was 1.05 ± 0.16 h and the AUC(0-t) (30 min before LVFX, blood) was 23200 ng·h/mL. For the same molecule, the MRT (30 min before LVFX, brain ECF) was 1.61 h.

— PMC9804084, “Multiple drug transporters contribute to the brain transfer of levofloxacin” (CNS Neuroscience & Therapeutics, 2022)
